Test: Binding affinity against Opioid receptor delta 1 was determined in brain membrane preparations from male Hartley guinea-pigs
Compound `CC1Oc2c(O)cccc2C12CCN(C)CC2` (stereo not drawn) [1',2-dimethylspiro[2,3-dihydrobenzo[b]furan-3,4'-(hexahydropyridine)]-7-ol] has a Ki of 2410 nM.
Compound `CN1CCC2(CC1)COc1c(O)cccc12` [1'-methylspiro[2,3-dihydrobenzo[b]furan-3,4'-(hexahydropyridine)]-7-ol] has a Ki of over 100000 nM.
Compound `CCC1Oc2c(O)cccc2C12CCN(C)CC2` (stereo not drawn) [2-ethyl-1'-methylspiro[2,3-dihydrobenzo[b]furan-3,4'-(hexahydropyridine)]-7-ol] has a Ki of 853 nM.

From BindingDB's records for doi:10.1016/s0960-894x(98)00318-7 (National Taiwan University, 1999)
